The values below come from the RepoRT retention time repository.

A short description of this data set: Agilent ZORBAX 300 SB-C18, 150 × 1 mm, 3.5 µm; A: water + 0.01% heptafluorobutyric acid; B: acetonitrile + 0.01% heptafluorobutyric acid; gradient (min/%B) 0/0 100/90. The conditions noted are these: stereoisomer not certain.
In the case of `c1ccc(-c2nc3ccccc3o2)cc1`, the LC retention time was 15.4 min.
For `CCCNCc1ccc2c(c1)n(C)c(=O)n2C`, the LC retention time is 7.81 min.
On to `c1ccc(-c2ccc3ccccc3n2)cc1`, for which the LC retention time turned out to be 13.1 min.
The result for `COC(=O)c1ccc(NC(=O)Nc2cccc3ccccc23)cc1` reads 14.3 min; that for `c1ccnnc1`, 4.58 min.
Take `CN1CCC23CCCCC2C1Cc1ccc(O)cc13` (configuration not stated): the LC retention time was determined as 9.18 min.
The result for `COc1ccc(NC(=O)Nc2ccc(OC)c(OC)c2)cc1OC` reads 10.2 min; that for `CCCN(CCC)CCC`, 8.17 min.
For the molecule `NC(=O)NC1CCCCC1`, the LC retention time is 7.79 min.
For `COc1ccc(C=CC(=O)C=Cc2ccc(OC)cc2)cc1`, the LC retention time worked out at 16.1 min.
With `CC(C)C(N)C(=O)O` (configuration not stated), the LC retention time amounted to 2.86 min.
As to `O=C1CCNC2CCCCC12` (configuration not stated), the LC retention time is 6.79 min.
With `COC(=O)CN`, the LC retention time stood at 3.64 min.
As to `CC(=O)Oc1ccc2c(c1)cc(C)n2C`, the LC retention time came out at 13.3 min.
The result for `O=C1C=C(O)C(=O)C1c1ccccc1` (configuration not stated) reads 9.39 min.
As to `O=C(NCCCCc1ccccc1)C(=O)NCc1ccco1`, the LC retention time was determined as 14.3 min.
With `Nc1ccc2c(c1)COC2=O`, the LC retention time is 7.27 min.
Turning to `Cc1[nH]c2ccccc2c1CCNC(N)=O`, the LC retention time worked out at 9.08 min.
Turning to `CC(=O)Nc1ccc(C2=NNC(c3ccccc3)C2)cc1` (configuration not stated), the LC retention time was found to be 10.3 min.
With `c1ccc(-c2nc3ccccc3[nH]2)cc1`, the LC retention time came out at 9.01 min.
Consider `NCCCCCC(=O)O`, for which the LC retention time was 6.81 min.
`C=CCNC1CCCC1`: the LC retention time stood at 7.45 min.
For `CN(c1nc(-c2ccc(C(C)(C)C)cc2)nc2ccccc12)C1CCCCC1`, the LC retention time was determined as 15.8 min.
Consider `CC1(C)CC(NC(=S)Nc2ccccc2)CC(C)(C)N1`, for which the LC retention time turned out to be 9 min.
Regarding `Cc1ccc(C)c(-c2cc(C)ncc2C)c1`, the LC retention time is 10.6 min.
With `O=C1CCN(c2ccccc2)N1`, the LC retention time worked out at 9.05 min.
Take `Cc1cc(C)c2cccc(C)c2n1`: the LC retention time stood at 8.65 min.
As for `CN(C)c1nc(N(C)C)nc(N(C)C)n1`, the LC retention time is 9.15 min.
In the case of `CNCC(O)c1cccc(O)c1` (configuration not stated), the LC retention time was 7.2 min.
Turning to `CCC(N)=O`, the LC retention time came to 2.3 min.
Consider `CCCCC(N)=O`, for which the LC retention time stood at 6.86 min.
For the molecule `COc1ccc(-c2oc3ccccc3c(=O)c2OC)cc1OC`, the LC retention time was determined as 13.4 min.
With `Cc1cc(C)c(C=CC(=O)c2cccs2)c(C)c1`, the LC retention time was determined as 18.2 min.
The result for `NCCCOc1ccccc1` reads 8.2 min; that for `CSC(=N)N`, 4.66 min; that for `Cc1cc2n[nH]nc2cc1C`, 9.69 min.
For the molecule `CCCCCCCCCC(N)=O`, the LC retention time came out at 13.8 min.
`O=c1[nH]c2ccccc2[nH]c1=O`: the LC retention time came out at 6.56 min.
The result for `CCOC(=O)c1c(C)n(C2CCCCC2)c2ccc(OC(C)=O)cc12` reads 17.8 min.
Regarding `COC(=O)c1ccc(C(=O)OC)c(NC(=O)CC(c2ccccc2)c2ccccc2)c1`, the LC retention time worked out at 18 min.
Turning to `COc1ccccc1OCCN1CCNCC1`, the LC retention time came to 8.16 min.
Consider `Nc1cccc(S(=O)(=O)O)c1`, for which the LC retention time is 1.45 min.
With `Cc1cc(C(N)=O)c2ccccc2n1`, the LC retention time was 7 min.
As for `CCn1cc(CCC(=O)O)c2ccccc21`, the LC retention time came to 12.4 min.
On to `Cc1ccc(-c2nn[nH]n2)cc1`, for which the LC retention time worked out at 9.59 min.
The result for `CN(CCO)C(=O)Nc1ccccc1` reads 7.92 min; that for `Cc1cccc2c1CC(C)(C)NC2=S`, 13.3 min.
As to `COC(=O)Cn1c(=O)c2ccccc2n(CC(=O)OC)c1=O`, the LC retention time came out at 10.7 min.
As for `CCNC(=S)N1CCCC(C(N)=O)C1` (configuration not stated), the LC retention time was determined as 7.41 min.
In the case of `NC(=O)c1ccc(NC(=S)Nc2ccccc2)cc1`, the LC retention time turned out to be 9.25 min.
As for `Cc1c(O)c(=O)ccn1C`, the LC retention time came out at 6.47 min.
The result for `CCOC(=O)CN` reads 6.34 min; that for `Cc1cncc(C)c1`, 6.88 min; that for `CCCCCCCCC(N)=O`, 12.4 min.
On to `CCCCCCCNC(=O)c1ccc(OC(C)=O)cc1`, for which the LC retention time turned out to be 14.9 min.
The result for `Nc1ccc(C(=O)N2CCC(c3ccccc3)C2)cc1` (configuration not stated) reads 11 min; that for `NC(=O)C1CCN(C(=O)c2ccco2)CC1`, 6.85 min; that for `Nc1cccc(N)c1`, 5.85 min.
The result for `CC(CCc1ccccc1)NC(=S)Nc1cccnc1` (configuration not stated) reads 11.1 min.
For `Cc1cccnc1CN1CCN(Cc2ncccc2C)CC1`, the LC retention time stood at 7.69 min.
Consider `C=C(C)C1CCC2=CC(=O)CC(C)C2(C)C1` (configuration not stated), for which the LC retention time is 17.1 min.
The result for `CC(=O)c1c(C(C)=O)c(C)n(CCc2c[nH]c3ccccc23)c1C` reads 12.5 min; that for `CC(=NNc1ccccc1)C1=C(C)NC(=O)NC1c1ccccc1` (configuration not stated), 10.8 min.
In the case of `Cc1ccc(N2NC(C)(CC(C)C)NC2=S)cc1` (configuration not stated), the LC retention time was 15.1 min.
On to `CCCC(=O)Nc1ccc(N)cc1`, for which the LC retention time came to 7.75 min.
For `O=c1[nH]c(-c2ccccc2)cn1C1CCNCC1`, the LC retention time stood at 8.03 min.
For `Cc1cc2cc(N)ccc2n1C`, the LC retention time is 8.33 min.
With `CCNCC(O)CC` (configuration not stated), the LC retention time is 6.36 min.
Turning to `CC1=NN(c2ccc(C)cc2)C(=O)C1C=O` (configuration not stated), the LC retention time is 8.94 min.
As for `CC(C)NCCN(CCNC(C)C)CCNC(C)C`, the LC retention time is 7.84 min.
Turning to `O=C(O)CCCc1ccncc1`, the LC retention time was determined as 6.69 min.
`Nc1ccc(N)nc1`: the LC retention time is 5.45 min.
The result for `c1cn[nH]c1` reads 6.84 min.
Turning to `C#CCN(CC)CC#C`, the LC retention time came out at 6.73 min.
In the case of `COc1cccc2c1NCCC2`, the LC retention time was 8.45 min.
Take `O=C(C=Cc1ccccc1)c1ccc(O)cc1`: the LC retention time turned out to be 12.9 min.
For `c1cncc(-c2cn[nH]c2)c1`, the LC retention time amounted to 6.56 min.
The result for `O=C1c2ccccc2C(=O)N1CCN1CCNCC1` reads 8.07 min; that for `S=C(Nc1ccccc1)N1CCCCC1`, 12.3 min.
For `NC(=O)C(O)c1ccccc1` (configuration not stated), the LC retention time is 6.19 min.
The result for `CC(N)CN(C)C` (configuration not stated) reads 6.58 min; that for `CCCCCCn1c2ccccc2c2cc(C(=O)O)ccc21`, 17.8 min; that for `CCCCCCCCCCCN`, 12.2 min.
The result for `COc1ccccc1C=NNC(=O)c1ccc(C(C)(C)C)cc1` reads 15.3 min; that for `Cc1ccc(NC(=O)C=CC(=O)O)c(C)c1`, 10.8 min.
Take `Cc1cccc2c(=O)cc(-c3ccccc3)oc12`: the LC retention time worked out at 15.4 min.
Take `COc1ccccc1-n1c(=O)n2n(c1=O)CCCC2`: the LC retention time came to 9.12 min.
